# Measured values from patent US20160008336A1, “HDAC INHIBITORS FOR THE TREATMENT OF TRAUMATIC BRAIN INJURY” (Lixte Biotechnology, Inc., priority 2013, published 2016).
# “Also recorded” adds a separate entry of the source.
# What was measured:
# [1] = test system: rodent brains following TBI (controlled cortical impact); assay: FDG-PET imaging of rat brains after TBI; assay type: in vivo; conditions: for glucose uptake levels: rat brain cells following TBI, activity expected analogous to 205
# Method: (§1) The rats are anesthetized as described above. The rodent's head is be shaved, the animal placed in a stereotaxic device, the skin is prepared as in the Aseptic Techniques described above and the skull exposed using a small surgical incision over the temporal scalp. A small surgical incision (9-10 mm), a burr hole in the skull (5-6 mm), and a single contusion over the right frontal cortex is performed (FIG. 7). A 5.0 mm burr hole is drilled into the skull with a hand-held trephine to expose the dura mater. […] A single contusion is then made onto the surface of the dura (tip penetration depth of 2.1 mm, velocity of 5 m/s) over the left frontal cortex. Following CCI, the burr hole is covered with a bone flap, sealed with Jet Denture Repair Professional Package, and then the incision is closed with non-absorbable suture in a simple interrupted pattern. Sham-treated controls are treated similarly, but the impactor is not activated.
# (§2) TBI rodent model animals are treated with HDACis post-surgery at 4 h, 24 h and 48 h. The efficiency of HDACi treatment is evaluated as shown in FIG. 9 by studying the following parameters: • A=FDG-PET imaging analysis • B=Rota behavior test • C=Pathology analysis (H&E, IHC, IF, & gross) • D=Frozen samples (2D gel and WB) • E=Harvest animals and procure brain samples • Tx=HDI treatment
# FDG-PET imaging is conducted in larger animal cohorts treated with different drug concentrations to further confirm HDACis potential therapeutic effect in treating TBI and in increasing […].
# ^18F-FDG is purchased from the Nuclear Pharmacy of Cardinal Health, and reconstituted with sterile saline. PET scans and image analysis are performed using an Inveon microPET scanner (Siemens Medical Solutions). Each rat is injected with 18.5 MBq (500 μCi) of ^18F-FDG via tail vein. All the rats are maintained under anesthesia and warmed condition. 10 min static scans are acquired at 1 h after injection. The images are reconstructed using a two-dimensional ordered-subset expectation maximum (OSEM) algorithm, and no correction is applied for attenuation or scatter. For each microPET scan, regions of interest (ROIs) are drawn over the brain and muscle region using vendor software ASI Pro 5.2.4.0 on decay-corrected whole-body coronal images. The radioactivity accumulation within brain, heart and brown fat are obtained from mean pixel values within the multiple ROI volumes and then converted to megabecquerels (MBq) per milliliter […] using a conversion factor. These values are then divided by the administered activity to obtain (assuming a tissue density of 1 g/ml) an image-ROI-derived percent injected dose per gram (% ID/g).
# [2] = test system: Nestin; assay: Immunofluorescence / immunohistochemistry after TBI, Nestin; assay type: in vivo, rat
# Method: as §2
# (§3) Immunohistochemistry staining is performed using commercially available GFAP and Nestin primary antibodies (Abcam) on formalin-fixed paraffin-embedded tissue mounted on positively charged slides. The expression of Nestin is thought to identify neural stem and progenitor cells within the central nervous system. GFAP expression, however, is thought to represent astrocyte activation. Samples are labeled and visualized using a DAB staining kit (EnvisionKit; Dako, Carpinteria, Calif., USA). Immunofluorescence staining is also performed (with primary antibodies for GFAP and Nestin) in order to best assess the spatial and temporal pattern of expression of molecular markers associated with astrocyte activation and gliosis observed during the brain tissue injury repair process. The specimens are visualized using a Zeiss LSM 510 confocal microscope (Carl Zeiss, Thornwood, N.Y., USA).
# [3] = test system: Caspase 3; assay: Western blot of TBI brain tissue, Caspase 3; assay type: in vivo, rat; conditions: for Pro-Caspase 3 expression: rat brain cells following TBI
# Method: as §2
# (§4) Sections of frozen tissue protein from normal brain and TBI tissues in the injury area are extracted in T-PER solution, sonicated and centrifuged at 15,000 g at 4° C. to remove insoluble debris. The supernatant is used as the lysate. The protein concentration in each sample is measured by a colorimetric assay (Bio-Rad Protein Assay Kit) (Bio-Rad; Hercules, Calif.). Samples are denatured at 95° C. for 5 minutes in protein loading buffer. Equal amounts of protein at thirty micrograms of each lysate is loaded onto 4%-20% SDS-polyacrylamide gel (Invitrogen), and the proteins are electrophoretically transferred to nitrocellulose membranes and blocked with 5% milk solution. Detection of protein-bound primary antibodies is performed with a horseradish peroxidase-conjugated secondary antibody specific to rabbit or mouse immunoglobulin for one hour and an enhanced chemiluminescence system. Expression of specific proteins in each sample are determined and TBI injury tissue protein expression are compared to normal brain.
# [4] = test system: post-traumatic brain injured rats; assay: Behavioral motor performance (balance beam) test after TBI; assay type: in vivo, rat; conditions: for motor skills tests: rats post-TBI, activity expected analogous to 205
# Method: as §1, §2
# Balance Beam Test: The balance beam is a test of motor coordination (3-4). It is also a useful assay for sedation and joint pathology. Several beams are available. In general the round beams are harder than the square beams, and the thinner the beam the harder the test. In this test, animals have to walk and cross a round balance beam (like across one meter bridge-bar) to test their balance and motor skills. The score is recorded compared to sham group: • 100%: walk balance and cross whole balance beam. • 10%-90%: walk balance and cross balance beam from 10 cm to 90 cm. • 0%: walk unbalance and slip down
# [5] = test system: phosphorylated-AKT; assay: Western blot of TBI brain tissue, p-AKT; assay type: in vivo; conditions: rat brain cells following TBI; for p-Akt expression: activity expected analogous to 205
# Method: as §2, §4
# [6] = test system: GFAP; assay: Immunofluorescence / immunohistochemistry after TBI, GFAP; assay type: in vivo, rat; conditions: vs sham and TBI untreated brains, FIG. 6
# Method: as §2, §3
# [7] = test system: TBI damage area of rodent brain; assay: Pathological analysis (H & E staining) and gross appearance after TBI; assay type: in vivo, rat
# Method: as §1, with “Sham-treated controls are treated similarly, but the impactor is not activated.” left out
# as §2
# Brain injury areas are measured and calculated post-TBI at 4 hours, day 1, and week (according to FIG. 9). […]
# [8] = relative to SAHA; cited from earlier work
# [9] = test system: transformed cells; conditions: in vitro and in vivo; background; cited from earlier work
# [10] = activity expected analogous to 205
SMILES,glucose uptake levels [1],"formation of new stem-like proliferative neural cells following TBI [2, 10]","Pro-Caspase 3 expression [3, 10]",motor skills tests [4],p-Akt expression [5],further results
"O=C(CCCCCNC(=O)c1ccccc1S)Nc1ccccc1 [Compound 201, 2-Mercapto-N-[5-(phenyl-3-ylcarbamoyl)pentyl]benzamide]",increase,induce formation,decrease,perform significantly better,increase,
O=C(NCCCCCCNC(=O)c1ccccc1O)c1ccccc1O [Compound 203],increase,induce formation,decrease,perform significantly better,increase,
O=C(NCCCCCCNC(=O)c1ccccc1S)c1ccccc1S [Compound 204],increase,induce formation,decrease,perform significantly better,increase,
"O=C(CCCCCNC(=O)c1ccccc1S)Nc1cccnc1 [Compound 205, 2-Mercapto-N-[5-(pyridin-3-ylcarbamoyl)pentyl]benzamide]",,,,,,"glucose uptake levels at the site of injury (FDG-PET) ([1]; rats post-TBI, treated post-surgery at 4 h, 24 h and 48 h, FIG. 1): significantly increased; also recorded: increased glucose levels; angiogenic activity in the brain ([1]; rodent model of TBI, post-injury administration): up-regulated angiogenic activity; GFAP staining / expression [6]: increased; formation of new stem-like proliferative neural cells following TBI ([2]; following TBI): induced formation; Nestin staining / expression ([2]; vs sham and TBI untreated brains, FIG. 6): increased; Cleaved Caspase 3 expression ([3]; Western blot, FIG. 5a): significantly decreased; Pro-Caspase 3 expression ([3]; FIG. 5a): decreased; H & E staining: reactive gliosis and cellularity ([7]; FIG. 3): increased reactive gliosis (arrow) and more active brain cells observed; also recorded: increased reactive gliosis (as well as increased cellularity); gross appearance of TBI damage area / scarring ([7]; gross post-mortem examination, FIG. 2): improved; also recorded: much less scaring and less appearance of obvious injury; also recorded: reduced scarring; half-life in vivo [8]: longer half-life in vivo; behavioral motor performance (motor skill tests) ([4]; post-injury administration, 10 mg/kg, one meter bar, FIG. 4): improves behavioral performance; also recorded: performed significantly better; p-AKT expression ([5]; FIG. 5b): increased"
CN(C)c1ccc(NC(=O)CCCCCNC(=O)c2ccccc2S)cc1 [Compound 206],increase,induce formation,decrease,perform significantly better,increase,
O=C(CCCCCNC(=O)c1cc(Cl)ccc1S)Nc1cccnc1 [Compound 207a],increase,induce formation,decrease,perform significantly better,increase,
O=C(NCCCCCNC(=O)c1ccccc1S)c1cccnc1 [Compound 208],increase,induce formation,decrease,perform significantly better,increase,
Nc1ccc(NC(=O)CCCCCNC(=O)c2ccccc2S)cc1 [Compound 209],increase,induce formation,decrease,perform significantly better,increase,
O=C(CCCCCNC(=O)c1cc(Cl)ccc1S)Nc1ccccc1 [Compound 210],increase,induce formation,decrease,perform significantly better,increase,
COc1ccc(S)c(C(=O)NCCCCCC(=O)Nc2ccccc2)c1 [Compound 211],increase,induce formation,decrease,perform significantly better,increase,
O=C(CCCCCCNC(=O)c1ccccc1S)Nc1ccccc1 [Compound 212],increase,induce formation,decrease,perform significantly better,increase,
O=C(CCCCCCCNC(=O)c1ccccc1S)Nc1ccccc1 [Compound 213],increase,induce formation,decrease,perform significantly better,increase,
O=C(CCCCCCCCCCNC(=O)c1ccccc1S)Nc1ccccc1 [Compound 214],increase,induce formation,decrease,perform significantly better,increase,
"O=C(CCCCCCC(=O)Nc1ccccc1)NO [SAHA, Suberoylanilide hydroxamic acid]",,,,,,growth arrest and death of transformed cells [9]: causes growth arrest and death
